Test results as given in patent publication US12643880B2, “Heterobifunctional molecules as TEAD inhibitors” (Genentech, Inc., priority 2020, dated 2026).
Where a name gives a salt, the structure may show the parent alone.

How the values were obtained:
Type in all cases: binding
Conditions in all cases: His-tagged TEAD protein, biotinylated lipid pocket probe
TEAD1 = TEAD1 (Homo sapiens, UniProt P28347); test: TEAD lipid pocket TR-FRET (Lipid HTRF) competition assay, TEAD1
Experimental: (§1) His-tagged TEAD proteins are pre-incubated with TEAD project compounds for 30 minutes at room temperature. Biotinylated lipid pocket probes are then added to the TEAD/Compound mixture and incubated for 60 minutes at room temperature. The lipid pocket probe competes with the test compound for the TEAD lipid pocket until equilibrium is reached. After 60 minutes, Europium labelled anti-His (Perkin Elmer #ADO 110) and XL665 labelled streptavidin (CIS Bio 610SAXAC) are added to the TEAD/test compound/lipid pocket mixture and incubated for 30 minutes. TR-FRET values are then measured using an EnVision multi-label plate reader (Perkin Elmer Cat #2104-1A.) If the lipid pocket probe binds to TEAD as expected, a TR-FRET signal results from the proximity of Tani-His Eu and XL665. If a TEAD lipid pocket binder such as binds and displaces the lipid pocket probe, the disruption of the TEAD:probe interaction results in a decrease in TR-FRET signal. The potency of compounds as TEAD lipid pocket binders is determined by IC50 value generated using a non-linear 4 parameter curve fit. This assay format enables more sensitive determinations of lipid pocket affinity than the aforementioned TEAD lipid pocket FP assay due to the decreased concentration of TEAD protein required for the TR-FRET assay format.

TEAD2 = TEAD2 (Homo sapiens, UniProt Q15562); test: TEAD lipid pocket TR-FRET (Lipid HTRF) competition assay, TEAD2
Experimental: as §1

TEAD3 = TEAD3 (Homo sapiens, UniProt Q99594); test: TEAD lipid pocket TR-FRET (Lipid HTRF) competition assay, TEAD3
Experimental: as §1

TEAD4 = TEAD4 (Homo sapiens, UniProt Q15561); test: TEAD lipid pocket TR-FRET (Lipid HTRF) competition assay, TEAD4
Experimental: as §1

TEAD4, sequence (Q15561 whole entry, species assumed): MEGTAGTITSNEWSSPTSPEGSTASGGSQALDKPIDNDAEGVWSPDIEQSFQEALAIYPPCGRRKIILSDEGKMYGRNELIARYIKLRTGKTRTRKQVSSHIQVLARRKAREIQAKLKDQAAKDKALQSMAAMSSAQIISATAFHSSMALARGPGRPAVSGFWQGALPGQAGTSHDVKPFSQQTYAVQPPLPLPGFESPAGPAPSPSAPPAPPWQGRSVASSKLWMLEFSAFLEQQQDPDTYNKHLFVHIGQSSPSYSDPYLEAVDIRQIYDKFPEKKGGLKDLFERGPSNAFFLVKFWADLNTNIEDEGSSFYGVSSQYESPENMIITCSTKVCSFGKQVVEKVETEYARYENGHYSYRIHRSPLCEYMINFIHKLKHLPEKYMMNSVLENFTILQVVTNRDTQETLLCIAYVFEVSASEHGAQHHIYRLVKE
TEAD1, sequence (P28347 whole entry, species assumed): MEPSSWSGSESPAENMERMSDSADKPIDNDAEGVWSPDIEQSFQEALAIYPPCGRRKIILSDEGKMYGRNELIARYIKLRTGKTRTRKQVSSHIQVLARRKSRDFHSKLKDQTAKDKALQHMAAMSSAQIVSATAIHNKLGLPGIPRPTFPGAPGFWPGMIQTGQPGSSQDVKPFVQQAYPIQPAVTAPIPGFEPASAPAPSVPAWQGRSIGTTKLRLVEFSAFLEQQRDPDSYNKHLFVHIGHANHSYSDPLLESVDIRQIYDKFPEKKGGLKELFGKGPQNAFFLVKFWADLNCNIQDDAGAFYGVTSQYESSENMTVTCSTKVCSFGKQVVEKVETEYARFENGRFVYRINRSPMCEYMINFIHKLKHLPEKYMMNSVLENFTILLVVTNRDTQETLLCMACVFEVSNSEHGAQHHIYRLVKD
TEAD3, sequence (Q99594 whole entry, species assumed): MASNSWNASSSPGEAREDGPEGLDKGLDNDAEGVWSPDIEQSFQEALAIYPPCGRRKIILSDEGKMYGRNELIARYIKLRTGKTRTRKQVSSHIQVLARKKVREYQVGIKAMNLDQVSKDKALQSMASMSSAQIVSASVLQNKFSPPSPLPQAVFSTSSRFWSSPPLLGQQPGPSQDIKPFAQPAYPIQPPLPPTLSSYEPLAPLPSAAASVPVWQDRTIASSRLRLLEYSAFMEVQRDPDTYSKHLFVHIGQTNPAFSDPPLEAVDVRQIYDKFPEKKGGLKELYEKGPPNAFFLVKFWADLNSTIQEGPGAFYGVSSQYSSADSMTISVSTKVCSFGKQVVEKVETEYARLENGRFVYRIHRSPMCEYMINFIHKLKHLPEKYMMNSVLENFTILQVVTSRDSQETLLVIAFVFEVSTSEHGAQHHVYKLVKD
TEAD2, sequence (Q15562 whole entry, species assumed): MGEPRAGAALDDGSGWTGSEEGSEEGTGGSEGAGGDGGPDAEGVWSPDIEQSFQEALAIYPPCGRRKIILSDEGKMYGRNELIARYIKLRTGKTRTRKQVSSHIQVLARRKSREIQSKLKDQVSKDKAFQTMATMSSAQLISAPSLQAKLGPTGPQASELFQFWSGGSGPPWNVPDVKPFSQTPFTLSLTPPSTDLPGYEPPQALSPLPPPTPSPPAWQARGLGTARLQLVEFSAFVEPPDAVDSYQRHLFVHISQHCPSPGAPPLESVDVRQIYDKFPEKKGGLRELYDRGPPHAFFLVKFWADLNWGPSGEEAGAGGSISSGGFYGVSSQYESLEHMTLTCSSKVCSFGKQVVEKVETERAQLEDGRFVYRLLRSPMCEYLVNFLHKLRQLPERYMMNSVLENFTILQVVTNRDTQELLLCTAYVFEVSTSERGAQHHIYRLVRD

**Q.** Which IC50 (TEAD1) does the source give for `COc1cnc(C(=O)NCc2cccc(CC(=O)N(C)CCCCOc3ccc4c(c3)C(=O)N(C3CCC(=O)NC3=O)C4=O)c2)cc1/C=C/[C@H]1CC[C@H](C(F)(F)F)CC1` (stereo partly drawn) [Compound 1, N-(3-(2-((4-((2-(2,6-dioxopiperidin-3-yl)-1,3-dioxoisoindolin-5-yl)oxy)butyl)(methyl)amino)-2-oxoethyl)benzyl)-5-methoxy-4-((E)-2-(trans-4-(trifluoromethyl)cyclohexyl)vinyl)picolinamide] here?
**A.** 650 nM

**Q.** What about the IC50 (TEAD2) of the same compound?
**A.** 230 nM

**Q.** What about the IC50 (TEAD3) of the same compound?
**A.** 6000 nM

**Q.** What about the IC50 (TEAD4) of the same compound?
**A.** 90 nM

**Q.** `COc1cnc(C(=O)NCc2cccc(CC(=O)N(C)CCOCCOCCOCCOCCOCCOc3ccc4c(c3)C(=O)N(C3CCC(=O)NC3=O)C4=O)c2)cc1/C=C/[C@H]1CC[C@H](C(F)(F)F)CC1` (stereo partly drawn) [Compound 7, N-(3-(20-((2-(2,6-Dioxopiperidin-3-yl)-1,3-dioxoisoindolin-5-yl)oxy)-3-methyl-2-oxo-6,9,12,15,18-pentaoxa-3-azaicosyl)benzyl)-5-methoxy-4-((E)-2-(trans-4-(trifluoromethyl)cyclohexyl)vinyl)picolinamide] was tested. Which IC50 (TEAD1) did it give?
**A.** 360 nM

**Q.** And the IC50 (TEAD2)?
**A.** 110 nM

**Q.** What about the IC50 (TEAD3) of the same compound?
**A.** 2000 nM

**Q.** And the IC50 (TEAD4)?
**A.** 60 nM

**Q.** What does the source list for `COc1cnc(C(=O)NCc2cccc(CC(=O)NCCOCCOCCOCC(=O)N[C@H](C(=O)N3C[C@H](O)C[C@H]3C(=O)NCc3ccc(-c4scnc4C)cc3)C(C)(C)C)c2)cc1/C=C/[C@H]1CC[C@H](C(F)(F)F)CC1` [Compound 15, N-(3-((S)-16-((2S,4R)-4-Hydroxy-2-((4-(4-methylthiazol-5-yl)benzyl)carbamoyl)pyrrolidine-1-carbonyl)-17,17-dimethyl-2,14-dioxo-6,9,12-trioxa-3,15-diazaoctadecyl)benzyl)-5-methoxy-4-((E)-2-(trans-4-(trifluoromethyl)cyclohexyl)vinyl)picolinamide]?
**A.** IC50 (TEAD1): 600 nM; IC50 (TEAD2): 380 nM; IC50 (TEAD3): 3630 nM; IC50 (TEAD4): 170 nM

**Q.** Which results are given for `COc1cnc(C(=O)NCc2cccc(CC(=O)N(C)CCOCCOCCOCCOc3ccc4c(c3)C(=O)N(C3CCC(=O)NC3=O)C4=O)c2)cc1/C=C/[C@H]1CC[C@H](C(F)(F)F)CC1` (stereo partly drawn) [Compound 3, N-(3-(14-((2-(2,6-Dioxopiperidin-3-yl)-1,3-dioxoisoindolin-5-yl)oxy)-3-methyl-2-oxo-6,9,12-trioxa-3-azatetradecyl)benzyl)-5-methoxy-4-((E)-2-(trans-4-(trifluoromethyl)cyclohexyl)vinyl)picolinamide]?
**A.** IC50 (TEAD1): 300 nM; IC50 (TEAD2): 130 nM; IC50 (TEAD3): 4800 nM; IC50 (TEAD4): 60 nM

**Q.** With `COc1cnc(C(=O)NCc2cccc(CC(=O)N(C)CCOCCOc3ccc4c(c3)C(=O)N(C3CCC(=O)NC3=O)C4=O)c2)cc1/C=C/[C@H]1CC[C@H](C(F)(F)F)CC1` (stereo partly drawn) [Compound 5, N-(3-(2-((2-(2-((2-(2,6-Dioxopiperidin-3-yl)-1,3-dioxoisoindolin-5-yl)oxy)ethoxy)ethyl)(methyl)amino)-2-oxoethyl)benzyl)-5-methoxy-4-((E)-2-(trans-4-(trifluoromethyl)cyclohexyl)vinyl)picolinamide] as the compound, how does the IC50 (TEAD1) read?
**A.** 510 nM

**Q.** And the IC50 (TEAD2)?
**A.** 180 nM

**Q.** And the IC50 (TEAD3)?
**A.** 4000 nM

**Q.** What about the IC50 (TEAD4) of the same compound?
**A.** 110 nM

**Q.** Which results are given for `COc1cnc(C(=O)NCc2cccc(CC(=O)N(C)CCCCCCCOc3ccc4c(c3)C(=O)N(C3CCC(=O)NC3=O)C4=O)c2)cc1/C=C/[C@H]1CC[C@H](C(F)(F)F)CC1` (stereo partly drawn) [Compound 9, N-(3-(2-((7-((2-(2,6-Dioxopiperidin-3-yl)-1,3-dioxoisoindolin-5-yl)oxy)heptyl)(methyl)amino)-2-oxoethyl)benzyl)-5-methoxy-4-((E)-2-(trans-4-(trifluoromethyl)cyclohexyl)vinyl)picolinamide]?
**A.** IC50 (TEAD1): 1300 nM; IC50 (TEAD2): 650 nM; IC50 (TEAD3): 5370 nM; IC50 (TEAD4): 320 nM

**Q.** What does the source list for `COc1cnc(C(=O)NCc2cccc(CC(=O)NCCCCC(=O)N[C@H](C(=O)N3C[C@H](O)C[C@H]3C(=O)NCc3ccc(-c4scnc4C)cc3)C(C)(C)C)c2)cc1/C=C/[C@H]1CC[C@H](C(F)(F)F)CC1` [Compound 11, N-(3-(2-((5-(((S)-1-((2S,4R)-4-Hydroxy-2-((4-(4-methylthiazol-5-yl)benzyl)carbamoyl)pyrrolidin-1-yl)-3,3-dimethyl-1-oxobutan-2-yl)amino)-5-oxopentyl)amino)-2-oxoethyl)benzyl)-5-methoxy-4-((E)-2-(trans-4-(trifluoromethyl)cyclohexyl)vinyl)picolinamide]?
**A.** IC50 (TEAD1): 700 nM; IC50 (TEAD2): 370 nM; IC50 (TEAD3): 2530 nM; IC50 (TEAD4): 170 nM

**Q.** Which results are given for `COc1cnc(C(=O)NCc2cccc(CC(=O)NCCOCCOCC(=O)N[C@H](C(=O)N3C[C@H](O)C[C@H]3C(=O)NCc3ccc(-c4scnc4C)cc3)C(C)(C)C)c2)cc1/C=C/[C@H]1CC[C@H](C(F)(F)F)CC1` [Compound 14, N-(3-((S)-13-((2S,4R)-4-Hydroxy-2-((4-(4-methylthiazol-5-yl)benzyl)carbamoyl)pyrrolidine-1-carbonyl)-14,14-dimethyl-2,11-dioxo-6,9-dioxa-3,12-diazapentadecyl)benzyl)-5-methoxy-4-((E)-2-(trans-4-(trifluoromethyl)cyclohexyl)vinyl)picolinamide]?
**A.** IC50 (TEAD1): 720 nM; IC50 (TEAD2): 410 nM; IC50 (TEAD3): 3830 nM; IC50 (TEAD4): 170 nM

**Q.** For `CN[C@@H](C)C(=O)N[C@H](C(=O)N1CCC[C@H]1C(=O)Nc1sc(NC(=O)COCCOCCOCCOCCOCCOCCN(C)C(=O)Cc2cccc(CNC(=O)c3cc(/C=C/[C@H]4CC[C@H](C(F)(F)F)CC4)c(OC)cn3)c2)nc1-c1ccccc1)C1CCCCC1` [Compound 20, N-(3-(23-((5-((S)-1-((S)-2-Cyclohexyl-2-((S)-2-(methylamino)propanamido)acetyl)pyrrolidine-2-carboxamido)-4-phenylthiazol-2-yl)amino)-3-methyl-2,23-dioxo-6,9,12,15,18,21-hexaoxa-3-azatricosyl)benzyl)-5-methoxy-4-((E)-2-(trans-4-(trifluoromethyl)cyclohexyl)vinyl)picolinamide formate], which IC50 (TEAD1) is on record?
**A.** 510 nM

**Q.** What about the IC50 (TEAD2) of the same compound?
**A.** 340 nM

**Q.** And the IC50 (TEAD3)?
**A.** 4300 nM

**Q.** What about the IC50 (TEAD4) of the same compound?
**A.** 130 nM

**Q.** What does the source list for `COc1cnc(C(=O)NCc2cccc(CC(=O)N(C)CCOCCOCCOc3ccc4c(c3)C(=O)N(C3CCC(=O)NC3=O)C4=O)c2)cc1/C=C/[C@H]1CC[C@H](C(F)(F)F)CC1` (stereo partly drawn) [Compound 6, N-(3-(2-((2-(2-(2-((2-(2,6-Dioxopiperidin-3-yl)-1,3-dioxoisoindolin-5-yl)oxy)ethoxy)ethoxy)ethyl)(methyl)amino)-2-oxoethyl)benzyl)-5-methoxy-4-((E)-2-(trans-4-(trifluoromethyl)cyclohexyl)vinyl)picolinamide]?
**A.** IC50 (TEAD1): 1150 nM; IC50 (TEAD2): 180 nM; IC50 (TEAD3): 30000 nM; IC50 (TEAD4): 70 nM

**Q.** How did the IC50 (TEAD1) turn out when `COc1cnc(C(=O)NCc2cccc(CC(=O)NCCOCCOCCOCCOCCOCC(=O)N[C@H](C(=O)N3C[C@H](O)C[C@H]3C(=O)NCc3ccc(-c4scnc4C)cc3)C(C)(C)C)c2)cc1/C=C/[C@H]1CC[C@H](C(F)(F)F)CC1` [Compound 17, N-(3-((S)-22-((2S,4R)-4-Hydroxy-2-((4-(4-methylthiazol-5-yl)benzyl)carbamoyl)pyrrolidine-1-carbonyl)-23,23-dimethyl-2,20-dioxo-6,9,12,15,18-pentaoxa-3,21-diazatetracosyl)benzyl)-5-methoxy-4-((E)-2-(trans-4-(trifluoromethyl)cyclohexyl)vinyl)picolinamide] was run?
**A.** 280 nM

**Q.** And the IC50 (TEAD2)?
**A.** 90 nM

**Q.** What about the IC50 (TEAD3) of the same compound?
**A.** 1500 nM

**Q.** And the IC50 (TEAD4)?
**A.** 40 nM
